Data: US20090186868A1, “Taxane Compound Having Azetidine Ring Structure” (Daiichi Sankyo Company Limited, priority 2005, published 2009)
Values after ≈ are worked out from the molar mass of the structure shown. Where two headings read alike, the source gives them in different places.

Key:
B16 melanoma BL6 = test: Antitumor effect in mice subcutaneously transplanted with B16 melanoma BL6; type: in vivo, Mice (C57BL/6); details: for Therapeutic index: MTD/MED; for Effective dose range: range from MED to MTD, antitumor effect of 58% or more considered effective
Description: (§1) Mice (C57BL/6, Charles River Japan) were subcutaneously transplanted with B16 melanoma BL6 (Cancer Res., Poste, G., Fidler, I. J. et al., 1980, 40:1636; Bioorg. Med. Chem. Lett., Takeda, Y. et al., 2003, 13:185-190), or M5076 (obtained from Japanese Foundation for Cancer Research), which is a histiocytoma expressing P-gp. Four days after the transplantation in the case of B16 melanoma BL6, or 8 to 10 days after the transplantation in the case of M5076, each test compound suspended in a 0.5% aqueous solution of carboxymethylcellulose sodium, or dissolved in EtOH:Tween 80:5% glucose=5:5:90 (v/v %) was orally (po) or intravenously (iv) administered to the mice. Ten days after the administration in the case of B16 melanoma BL6, or 8 to 10 days after the administration in the case of M5076, the mice were dissected, and tumor weights were measured. The antitumor effect was calculated in accordance with the following equation.
(§2) [1−(Average tumor weight of compound administration group/average tumor weight of solvent administration group)]×100
(§3) An antitumor effect of 58% or more was considered effective (Int. J. Cancer, 1989, 43:637-44), and the maximum tolerance dose (MTD, maximum dose not causing death, mg/kg) and minimum effective dose (MED, mg/kg) showing effectiveness were obtained, respectively. The therapeutic index was calculated in accordance with the equation: MTD/MED.
(§4) ND means that the test was not performed. The effective dose range means the range of from MED to MTD.

[1] = Solubility in first and second solution for disintegration test (Japanese Pharmacopoeia); type: physicochemical; details: for solubility: thermodynamic from solid
Protocol: Solubility of each compound was determined in the first solution for disintegration test according to Japanese Pharmacopoeia (henceforth referred to as the first solution, solution obtained by adding 7 mL of hydrochloric acid and water to 2.00 g of sodium chloride to dissolve sodium chloride and fill up the solution to 1000 mL, pH 1.2) and the second solution for disintegration test according to Japanese Pharmacopoeia (henceforth referred to as the second solution, solution obtained by adding 118 mL of 0.2 mol/L solution of sodium hydroxide to 6.80 g of potassium dihydrogenphosphate, adding water to the mixture to dissolve potassium dihydrogenphosphate and filling up the solution to 1000 mL, pH 6.8).
Each test compound was dissolved in 100% dimethyl sulfoxide (DMSO) at a concentration of 10 mM, and 50 μL of the solution was lyophilized. The lyophilized test compound was added with 250 μL of the first solution or second solution, and the mixture was stored at room temperature for 12 hours or longer under light shielding, and filtered (0.7 μm). The filtrate was taken in a volume of 90 μL, and added with 50% DMSO (90 μL) to obtain a two-fold diluted solubility sample. The two-fold dilution solubility sample was taken in a volume of 20 μL, and added with 50% DMSO (180 μL) to obtain a […] diluted solubility sample. Solubility of each test sample was determined by quantifying the test compound in the resulting diluted solubility test samples using high-performance liquid chromatography.

[2] = tested on: M5076 (histiocytoma expressing P-gp); test: Antitumor effect in mice subcutaneously transplanted with M5076; type: in vivo, Mice (C57BL/6); details: for Therapeutic index: MTD/MED; for Effective dose range: range from MED to MTD, antitumor effect of 58% or more considered effective
Description: as §1, §2, §3, §4

[3] = aqueous buffer, second solution for disintegration test, pH 6.8, room temperature, 12 hours or longer, read-out: Solubility (μg/mL) pH 6.8
[4] = simulated gastric fluid, first solution for disintegration test, pH 1.2, room temperature, 12 hours or longer, read-out: Solubility (μg/mL) pH 1.2
[5] = first solution for disintegration test, pH 1.2, room temperature, 12 hours or longer
[6] = second solution for disintegration test, pH 6.8, room temperature, 12 hours or longer

SMILES	Therapeutic index (B16 melanoma BL6; B16 Melanoma BL6, po)	solubility [1, 3] [µg/mL]	solubility [1, 4] [µg/mL]	Therapeutic index (B16 melanoma BL6; B16 Melanoma BL6, iv)	further results
CC(=O)O[C@@]12CO[C@@H]1CC[C@@]1(C)[C@@H]3O[C@H](CN4CC[C@H]4CO)O[C@@H]3C3=C(C)[C@@H](OC(=O)[C@H](O)[C@@H](NC(=O)OC(C)(C)C)c4ccccn4)C[C@@](O)([C@@H](OC(=O)c4ccccc4)[C@@H]12)C3(C)C [Example 21, (1S,2S,3R,4S,5R,8R,9S,10R,13S)-4-(Acetoxy)-2-(benzoyloxy)-5,20-epoxy-1-hydroxy-9,10-{(1S)-2-[(2S)-2-hydroxymethylazetidino]ethylidenedioxy}tax-11-en-13-yl (2R,3S)-3-(tert-butoxycarbonylamino)-2-hydroxy-3-(2-pyridyl)propionate]	5.9	150 (≈ 166 µM)	> 1000	–	–
CC(=O)O[C@@]12CO[C@@H]1CC[C@@]1(C)[C@@H]3O[C@H](CN4CC(S(C)(=O)=O)C4)O[C@@H]3C3=C(C)[C@@H](OC(=O)[C@H](O)[C@@H](NC(=O)OC(C)(C)C)c4ncccc4F)C[C@@](O)([C@@H](OC(=O)c4ccccc4)[C@@H]12)C3(C)C [Example 28, (1S,2S,3R,4S,5R,8R,9S,10R,13S)-4-(Acetoxy)-2-(benzoyloxy)-5,20-epoxy-1-hydroxy-9,10-{(1S)-2-[3-(methanesulfonyl)azetidino]ethylidenedioxy}tax-11-en-13-yl (2R,3S)-3-(tert-butoxycarbonylamino)-3-(3-fluoro-2-pyridyl)-2-hydroxypropionate]	4.2	18 (≈ 18.5 µM)	1300 (≈ 1340 µM)	–	–
CC[C@H](NC(=O)OC(C)(C)C)[C@@H](O)C(=O)O[C@H]1C[C@@]2(O)[C@@H](OC(=O)c3ccccc3)[C@H]3[C@@](C)(CC[C@H]4OC[C@]43OC(C)=O)[C@@H]3O[C@H](CN4CCC4)O[C@@H]3C(=C1C)C2(C)C [Example 37, (1S,2S,3R,4S,5R,8R,9S,10R,13S)-4-(Acetoxy)-9,10-[(1S)-2-(azetidino)ethylidenedioxy]-2-(benzoyloxy)-5,20-epoxy-1-hydroxy-tax-11-en-13-yl (2R,3S)-3-(tert-butoxycarbonylamino)-2-hydroxypentanoate]	2.0	–	–	4.2	Effective dose range (B16 melanoma BL6; B16 Melanoma BL6, iv): 7.21 to 30.0 mg/kg; Effective dose range (B16 melanoma BL6; B16 Melanoma BL6, po): 14.7 to 30.0 mg/kg; Therapeutic index ([2]; M5076, iv): 1.4; Effective dose range ([2]; M5076, iv): 14.7 to 21.0 mg/kg; Solubility (μg/mL) pH 1.2 [1, 5]: 670 μg/mL; Solubility (μg/mL) pH 6.8 [1, 6]: 210 μg/mL
CC(=O)O[C@@]12CO[C@@H]1CC[C@@]1(C)[C@@H]3O[C@H](CN4CC[C@H]4CO)O[C@@H]3C3=C(C)[C@@H](OC(=O)[C@H](O)[C@@H](NC(=O)OC(C)(C)C)c4ncccc4F)C[C@@](O)([C@@H](OC(=O)c4ccccc4)[C@@H]12)C3(C)C [Example 22, (1S,2S,3R,4S,5R,8R,9S,10R,13S)-4-(Acetoxy)-2-(benzoyloxy)-5,20-epoxy-1-hydroxy-9,10-{(1S)-2-[(2S)-2-hydroxymethylazetidino]ethylidenedioxy}tax-11-en-13-yl (2R,3S)-3-(tert-butoxycarbonylamino)-3-(3-fluoro-2-pyridyl)-2-hydroxypropionate]	4.2	85 (≈ 92 µM)	1100 (≈ 1190 µM)	6.0	Therapeutic index ([2]; M5076, iv): 2.0; Effective dose range ([2]; M5076, iv): 12.0 to 24.5 mg/kg; Therapeutic index ([2]; M5076, po): 2.0; Effective dose range ([2]; M5076, po): 17.2 to 35 mg/kg
CC(=O)OC12COC1CCC1(C)C3OC(CN4CCC4)OC3C3=C(C)C(OC(=O)C(O)C(CF)NC(=O)OC(C)(C)C)CC(O)(C(OC(=O)c4ccccc4)C12)C3(C)C [Example 34, (1S,2S,3R,4S,5R,8R,9S,10R,13S)-4-(Acetoxy)-9,10-[(1S)-2-(azetidino)ethylidenedioxy]-2-(benzoyloxy)-5,20-epoxy-1-hydroxytax-11-en-13-yl (2R,3R)-3-(tert-butoxycarbonylamino)-4-fluoro-2-hydroxybutyrate]	–	–	–	4.2	Effective dose range (B16 melanoma BL6; B16 Melanoma BL6, iv): 10.1 to 42.0 mg/kg; Solubility (μg/mL) pH 1.2 [1, 5]: 830 μg/mL; Solubility (μg/mL) pH 6.8 [1, 6]: 310 μg/mL
CC(=O)O[C@@]12CO[C@@H]1CC[C@@]1(C)[C@@H]3O[C@H](CN4CCC4)O[C@@H]3C3=C(C)[C@@H](OC(=O)[C@H](O)[C@@H](NC(=O)OC(C)(C)C)c4nccs4)C[C@@](O)([C@@H](OC(=O)c4ccccc4)[C@@H]12)C3(C)C [Example 40, (1S,2S,3R,4S,5R,8R,9S,10R,13S)-4-(Acetoxy)-9,10-[(1S)-2-(azetidino)ethylidenedioxy]-2-(benzoyloxy)-5,20-epoxy-1-hydroxytax-11-en-13-yl (2R,3R)-3-(tert-butoxycarbonylamino)-2-hydroxy-3-(2-thiazolyl)propionate]	–	150 (≈ 170 µM)	1000 (≈ 1130 µM)	4.2	–
CC(=O)O[C@@]12CO[C@@H]1CC[C@@]1(C)[C@@H]3O[C@H](CN4CC(C)(O)C4)O[C@@H]3C3=C(C)[C@@H](OC(=O)[C@H](O)[C@@H](NC(=O)OC(C)(C)C)c4ncccc4F)C[C@@](O)([C@@H](OC(=O)c4ccccc4)[C@@H]12)C3(C)C [Example 12, (1S,2S,3R,4S,5R,8R,9S,10R,13S)-4-(Acetoxy)-2-(benzoyloxy)-5,20-epoxy-1-hydroxy-9,10-[(1S)-2-(3-hydroxy-3-methylazetidino)ethylidenedioxy]tax-11-en-13-yl (2R,3S)-3-(tert-butoxycarbonylamino)-3-(3-fluoro-2-pyridyl)-2-hydroxypropionate]	4.1	92 (≈ 99.6 µM)	1100 (≈ 1190 µM)	–	–
CC(=O)O[C@@]12CO[C@@H]1CC[C@@]1(C)[C@@H]3O[C@H](CN4CC(C(=O)N(C)C)C4)O[C@@H]3C3=C(C)[C@@H](OC(=O)[C@H](O)[C@@H](NC(=O)OC(C)(C)C)c4ccccn4)C[C@@](O)([C@@H](OC(=O)c4ccccc4)[C@@H]12)C3(C)C [Example 9, (1S,2S,3R,4S,5R,8R,9S,10R,13S)-4-(Acetoxy)-2-(benzoyloxy)-9,10-{(1S)-[2-(3-dimethylcarbamoyl)azetidino]ethylidenedioxy}-5,20-epoxy-1-hydroxytax-11-en-13-yl (2R,3S)-3-(tert-butoxycarbonylamino)-2-hydroxy-3-(2-pyridyl)propionate]	6.0	130 (≈ 137 µM)	1400 (≈ 1480 µM)	–	–
CC(=O)O[C@@]12CO[C@@H]1CC[C@@]1(C)[C@@H]3O[C@H](CN4CC[C@H]4C(=O)N(C)C)O[C@@H]3C3=C(C)[C@@H](OC(=O)[C@H](O)[C@@H](NC(=O)OC(C)(C)C)c4ccccn4)C[C@@](O)([C@@H](OC(=O)c4ccccc4)[C@@H]12)C3(C)C [Example 23, (1S,2S,3R,4S,5R,8R,9S,10R,13S)-4-(Acetoxy)-2-(benzoyloxy)-9,10-{(1S)-2-[(2S)-2-(dimethylcarbamoyl)azetidino]ethylidenedioxy}-5,20-epoxy-1-hydroxytax-11-en-13-yl (2R,3S)-3-(tert-butoxycarbonylamino)-2-hydroxy-3-(2-pyridyl)propionate]	2.9	–	–	–	solubility ([1]; pH 1.2, simulated gastric fluid): 1400 µg/mL (≈ 1480 µM); solubility ([1]; pH 6.8, aqueous buffer): 360 µg/mL (≈ 380 µM)
